Data: article PMC9785144, “Metal Coordination and Biological Screening of a Schiff Base Derived from 8-Hydroxyquinoline and Benzothiazole” (Pharmaceutics, 2022)

What was measured:
CT-26 colon cancer cells = assay: MTT antiproliferative assay, CT-26; format: cell-based, murine; conditions: Mus musculus, CT26; CT-26, MTT, 48 h incubation
Protocol: (§1) Murine colon cancer CT-26 (ATCC® CRL-263™) cells were cultured in RPMI-1640, supplemented with 10% foetal bovine serum (FBS) and 100 IU/mL of penicillin and 100 μg/mL streptomycin (Gibco, Thermo Fisher Scientific, Waltham, MA, USA), hereafter designated as complete culture medium. Human colon cancer HCT-116 (ATCC® CCL-247™), human melanoma A375 (ATCC® CCL-1619™), murine melanoma B16F10 (ATCC® CCL-6475™) cells and human epidermal keratinocytes (HaCaT) were maintained in Dulbecco’s modified Eagle’s medium (DMEM) with high-glucose (4500 mg/L) (Sigma-Aldrich, St. Louis, MO, USA), supplemented with 10% FBS and 100 IU/mL of penicillin and 100 μg/mL streptomycin (Gibco, Thermo Fisher Scientific, Waltham, MA, USA), also designated as complete culture medium. The cell lines were maintained at 37 °C in a 5% CO2 environment and cells were trypsinised every 2–3 days when 80% confluence was reached.
(§2) Negative controls were cells maintained in complete culture medium.

[1] = system: HCT-116 colon cancer cells; assay: MTT antiproliferative assay, HCT-116; format: cell-based, human; conditions: Homo sapiens; HCT-116, MTT, 48 h incubation
Protocol: as §1, §2

HCT-116 cells [2] = assay: Wound-healing migration assay, HCT-116; format: cell-based, human; conditions: HCT-116, 40 μM, at 22 h (control 50%)
Protocol: To assess cellular migration in the presence or absence of tested compounds, HCT-116 and CT-26 cells were plated at 1.5 × 10^5 and 3 × 10^5 cells/mL in a 12-well plate (1 mL/well) and were allowed to adhere and grow until reaching around 80–90% confluence. A sterile 10 μL pipette tip was used to wound the cell monolayer, followed by a washing step with PBS to remove debris. Then, cells were incubated with the tested compounds suspended in RPMI-1640 (CT-26) or DMEM media (HCT-116) supplemented with 2% FBS and 100 IU/mL of penicillin and 100 μg/mL streptomycin (Gibco, Thermo Fisher Scientific, Waltham, MA, USA), and hereafter designated as RPMI 2% and DMEM 2%, respectively. Under the above mentioned culture conditions, CT-26 cells were incubated with [Ni(HL)(acetate)] or [Ru(HL)Cl(DMSO)] at concentrations of 10 and 15 μM, respectively. […] The positive control, 5-FU, was tested at 1.5 and 40 μM for CT-26 and HCT-116, respectively. Negative control group was constituted by cells maintained in RPMI 2% (CT-26) and DMEM 2% (HCT-116). Images of the wound closure were taken beneath the stage of a Zeiss Axiovert 200 inverted microscope, using a 10× objective and a digital camera (CoolSNAP EZ, Photometrics, Huntington Beach, CA, USA) and recorded by the Metafluor Software at 0, 2, 4, 8, 18, 20 and 22 h following cell monolayer scratching (Molecular Devices, Sunnyvale, CA, USA). […]

CT-26 cells = assay: Guava ViaCount cell viability assay; format: cell-based, murine; conditions: CT-26, 48 h incubation
Protocol: CT-26 cells were incubated with [Ni(HL)(acetate)] or [Ru(HL)Cl(DMSO)] at concentrations of 5 and 10 μM or 10 and 20 μM, respectively. For the HCT-116 cell line, the tested concentrations were 5 and 7.5 μM, and 7.5 and 12.5 μM, respectively. The positive control group, 5-FU, was tested at 0.5 and 2 μM, and at 20 and 40 μM for CT-26 and HCT-116, respectively. Negative control group was constituted by cells in the presence of complete culture medium. After a 48 h incubation period, cell culture supernatants were collected, and adherent cells were detached using TrypLE™ Express (Invitrogen). Detached cells were then added to supernatants and the wells were washed using PBS with 2% FBS to recover any remaining cells. The recovered suspension was added to the previously collected cells and supernatants and centrifuged for 5 min at 650× g. The supernatants were discarded, and cells were suspended in PBS with 2% FBS. Then, on a 96-well plate, 20 μL of cell suspension was incubated with 180 μL of Guava ViaCount® reagent (Merck Millipore, Darmstadt, Germany) for 5 min at r. t. Using a Guava EasyCyte 5HT Flow cytometer (Guava Technologies, Inc., Hayward, CA, USA), data were collected and analysed with the ViaCount software module with the acquisition of 10,000 events per sample. GraphPad Prism®8 was used to analyse cell proliferation (GraphPad Software, San Diego, CA, USA). […]

HCT-116 cells [3] = system: HCT-116 cells; set-up: method as in PMID 34389368, PMID 34562873; conditions: HCT-116, concentrations around 20 μM; cited from earlier work
cancer cells = conditions: in vitro; cited from earlier work
HCT-116 cell line = system: HCT-116 cell line; set-up: method as in PMID 26961176; conditions: cited from earlier work
[4] = Stability in PBS pH 7.4 without and with BSA (UV-vis); format: physicochemical; conditions: PBS pH 7.4, 25 °C, <1% DMSO, without BSA
Protocol: The complexes were monitored for their stability in PBS, pH 7.4 at 25 °C in the absence and presence of equimolar amounts of bovine serum albumin (BSA). Stock solutions of each complex were prepared in DMSO and then diluted in PBS in order to obtain final concentrations of 20 to 30 µM and ensuring that the organic solvent was less than 1% (v/v). For the assays with BSA, stock solutions of the protein were prepared in PBS using 20 mg of lyophilised powder in 5 mL solvent, which were allowed to hydrate for 24 h in the refrigerator. Samples were monitored by UV-vis absorption spectroscopy for 6 h and a final measurement was also taken after 24 h.

[5] = target: bovine serum albumin (BSA) (Bos taurus, UniProt P02769); assay: Albumin binding by fluorescence quenching and circular dichroism; conditions: BSA ca. 20–25 μM, bands centred at ca. 360 nm, compound 5 to 70 μM
Protocol: The concentration of BSA in the experiments was ca. 1.5 μM (in aqueous PBS). The fluorescence emission spectra were recorded between 310 and 575 nm, with λex = 295 nm. Successive additions of the complexes were done directly to the cuvette (optical path 1 cm) and the fluorescence emission spectra were recorded for each one under the same conditions. Blank assays for each sample, consisting in solutions with the same concentration of complex and no BSA, were recorded and subtracted to the corresponding emission spectra containing the fluorophore. The UV-vis spectra of the sample solutions were used to correct the emission spectra, minimizing inner filter and reabsorption phenomena interference.
The concentration of BSA in the experiments was ca. 20–25 μM (in aqueous PBS). The circular dichroism (CD) spectra are an average of three scan accumulations, recorded between 300 and 500 nm, with bandwidth of 1 nm and response of 2 s, using a scanning speed of 100 nm/min. Successive additions of the complexes stock solutions in DMSO were done directly to the cuvette (1 cm) and the CD spectra were recorded under the same conditions after 10 min equilibration. Induced CD spectra were obtained as the CD spectrum of compound-BSA mixture minus the CD spectrum of BSA alone and are expressed as ellipticity in millidegrees.

Sequence of bovine serum albumin (BSA) (P02769 25-607): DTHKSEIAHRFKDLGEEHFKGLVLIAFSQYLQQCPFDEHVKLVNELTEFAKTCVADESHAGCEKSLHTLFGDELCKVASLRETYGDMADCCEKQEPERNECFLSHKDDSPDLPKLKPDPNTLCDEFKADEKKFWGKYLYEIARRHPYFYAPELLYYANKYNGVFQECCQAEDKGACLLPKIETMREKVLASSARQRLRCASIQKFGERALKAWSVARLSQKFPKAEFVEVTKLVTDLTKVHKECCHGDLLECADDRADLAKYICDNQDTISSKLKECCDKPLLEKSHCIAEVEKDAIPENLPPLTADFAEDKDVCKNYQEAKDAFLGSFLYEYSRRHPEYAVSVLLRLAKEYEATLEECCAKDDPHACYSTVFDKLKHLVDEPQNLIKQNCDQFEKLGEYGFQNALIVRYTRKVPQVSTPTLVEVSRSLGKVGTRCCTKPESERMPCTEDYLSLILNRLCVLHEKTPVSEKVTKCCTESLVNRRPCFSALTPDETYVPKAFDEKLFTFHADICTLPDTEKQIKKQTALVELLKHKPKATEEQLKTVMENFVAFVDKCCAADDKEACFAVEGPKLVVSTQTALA

## O=c1[nH]cc(F)c(=O)[nH]1 [5-FU, 5-fluorouracil, reference compound]
CT-26 colon cancer cells
  IC50: 2700 ± 1900 nM
[1]
  IC50: 43.8 ± 2.3 µM
HCT-116 cells [2]
  maximum wound closure: 39%
CT-26 cells
  cell viability by Guava ViaCount: higher percentage of dead and apoptotic cells
HCT-116 cells [3]
  cell cycle arrest: arrested cell cycle at S phase

## CS(C)=O.[Cl-].[Cl-].[Cl-].[Cl-].[Ru+3].c1c[nH+]c[nH]1.c1c[nH]cn1 [NAMI-A]
Cancer cells
  cytotoxicity against cancer cells: minimal cytotoxicity
  fold lower activity than cisplatin: 1000 fold
HCT-116 cell line
  effect on cell adhesion and migration: inhibitory effect in reducing cell adhesion and migration

## [O]=[V]([O]c1cccc2ccc(/C=N/Nc3nc4ccccc4s3)nc12)[O]c1cccc2ccc(/C=N/Nc3nc4ccccc4s3)nc12 [[VO(HL)2]]
[4]
  solubility and stability in PBS buffered solutions: oxidation of the metal centre likely takes place
[5]
  induced CD bands with BSA: high intensity induced CD bands
